In PMC4561207 (Child's nervous system : ChNS : official journal of the …, 2015):

Test: Toxicities attributed to Cediranib
Format: in vivo, human

## COc1cc2c(Oc3ccc4[nH]c(C)cc4c3F)ncnc2cc1OCCCN1CCCC1 [cediranib, Cediranib]
All grades
  diarrhea, number of patients: Thirty-two
Grade 1 TOX
  Abdominal pain, events (patients): 5(5)
  Acidosis, events (patients): 1(1)
  Alanine aminotransferase increased, events (patients): 41(22)
  Alkaline phosphatase increased, events (patients): 2(2)
  Anal mucositis, events (patients): 1(1)
  Anal pain, events (patients): 1(1)
  Anemia, events (patients): 2(2)
  Anorexia, events (patients): 8(8)
  Aspartate aminotransferase increased, events (patients): 37(19)
  Back pain, events (patients): 1(1)
  Blood bilirubin increased, events (patients): 13(7)
  Bone pain, events (patients): 1(1)
  Cardiac troponin I increased, events (patients): 1(1)
  Cholesterol high, events (patients): 1(1)
  Chronic kidney disease, events (patients): 1(1)
  Constipation, events (patients): 5(2)
  Cough, events (patients): 1(1)
  Creatinine increased, events (patients): 1(1)
  Dehydration, events (patients): 1(1)
  Depression, events (patients): 1(1)
  Diarrhea, events (patients): 43(30)
  Dizziness, events (patients): 3(3)
  Dry mouth, events (patients): 1(1)
  Dry skin, events (patients): 1(1)
  Dyspepsia, events (patients): 3(3)
  Edema face, events (patients): 1(1)
  Edema limbs, events (patients): 1(1)
  Endocrine disorders - Other, specify, events (patients): 1(1)
  Epistaxis, events (patients): 5(4)
  Fatigue, events (patients): 7(7)
  Fecal incontinence, events (patients): 1(1)
  Fever, events (patients): 1(1)
  GGT increased, events (patients): 1(1)
  Gastritis, events (patients): 1(1)
  Gastrointestinal disorders - Other, specify, events (patients): 1(1)
  Headache, events (patients): 5(4)
  Hematuria, events (patients): 5(3)
  Hemoglobin increased, events (patients): 6(2)
  Hoarseness, events (patients): 1(1)
  Hypercalcemia, events (patients): 3(2)
  Hyperglycemia, events (patients): 7(6)
  Hyperkalemia, events (patients): 2(2)
  Hypermagnesemia, events (patients): 7(5)
  Hypernatremia, events (patients): 5(4)
  Hypertension, events (patients): 19(13)
  Hyperthyroidism, events (patients): 2(2)
  Hypoalbuminemia, events (patients): 20(13)
  Hypocalcemia, events (patients): 16(8)
  Hypoglycemia, events (patients): 2(2)
  Hypokalemia, events (patients): 14(11)
  Hypomagnesemia, events (patients): 6(4)
  Hyponatremia, events (patients): 9(5)
  Hypophosphatemia, events (patients): 10(8)
  Hypothyroidism, events (patients): 10(10)
  INR increased, events (patients): 1(1)
  Investigations - Other, specify, events (patients): 2(2)
  Joint effusion, events (patients): 1(1)
  Leukoencephalopathy, events (patients): 1(1)
  Lymphocyte count decreased, events (patients): 11(8)
  Malaise, events (patients): 2(1)
  Mucositis oral, events (patients): 1(1)
  Myalgia, events (patients): 1(1)
  Nausea, events (patients): 15(10)
  Neutrophil count decreased, events (patients): 11(8)
  Non-cardiac chest pain, events (patients): 1(1)
  Oral pain, events (patients): 2(2)
  Pain in extremity, events (patients): 3(3)
  Palmar-plantar erythrodysesthesia syndrome, events (patients): 4(4)
  Platelet count decreased, events (patients): 22(17)
  Proteinuria, events (patients): 20(13)
  Rash acneiform, events (patients): 2(2)
  Rash maculo-papular, events (patients): 5(5)
  Rectal pain, events (patients): 1(1)
  Renal and urinary disorders - Other, specify, events (patients): 1(1)
  Serum amylase increased, events (patients): 1(1)
  Skin and subcutaneous tissue disorders - Other, specify, events (patients): 1(1)
  Stomach pain, events (patients): 2(2)
  Urinary frequency, events (patients): 1(1)
  Urinary retention, events (patients): 1(1)
  Vascular disorders - Other, specify, events (patients): 2(2)
  Voice alteration, events (patients): 2(2)
  Vomiting, events (patients): 23(12)
  Weight loss, events (patients): 1(1)
  White blood cell decreased, events (patients): 13(11)
Grade 2 TOX
  Abdominal pain, events (patients): 5(5)
  Alanine aminotransferase increased, events (patients): 17(9)
  Anorexia, events (patients): 5(5)
  Arthralgia, events (patients): 1(1)
  Aspartate aminotransferase increased, events (patients): 4(4)
  Back pain, events (patients): 1(1)
  Bone pain, events (patients): 1(1)
  Constipation, events (patients): 1(1)
  Dehydration, events (patients): 1(1)
  Diarrhea, events (patients): 16(11)
  Dizziness, events (patients): 2(1)
  Fatigue, events (patients): 9(9)
  Flushing, events (patients): 3(1)
  Gastrointestinal disorders - Other, specify, events (patients): 1(1)
  Headache, events (patients): 3(3)
  Hyperglycemia, events (patients): 2(2)
  Hypertension, events (patients): 28(28)
  Hypoalbuminemia, events (patients): 6(4)
  Hypocalcemia, events (patients): 1(1)
  Hypoglycemia, events (patients): 1(1)
  Hypomagnesemia, events (patients): 1(1)
  Hypophosphatemia, events (patients): 4(2)
  Hypothyroidism, events (patients): 10(10)
  Hypoxia, events (patients): 1(1)
  Intracranial hemorrhage, events (patients): 4(4)
  Lipase increased, events (patients): 1(1)
  Lymphocyte count decreased, events (patients): 7(5)
  Mucositis oral, events (patients): 2(2)
  Myalgia, events (patients): 1(1)
  Nausea, events (patients): 3(3)
  Neutrophil count decreased, events (patients): 7(4)
  Pain in extremity, events (patients): 1(1)
  Pain, events (patients): 1(1)
  Palmar-plantar erythrodysesthesia syndrome, events (patients): 10(7)
  Pericardial effusion, events (patients): 1(1)
  Peripheral motor neuropathy, events (patients): 1(1)
  Platelet count decreased, events (patients): 3(3)
  Pleural effusion, events (patients): 1(1)
  Proteinuria, events (patients): 13(12)
  Respiratory, thoracic and mediastinal disorders - Other, specify, events (patients): 1(1)
  Reversible posterior leukoencephalopathy syndrome, events (patients): 1(1)
  Seizure, events (patients): 1(1)
  Skin ulceration, events (patients): 1(1)
  Vomiting, events (patients): 3(3)
  Weight loss, events (patients): 1(1)
  White blood cell decreased, events (patients): 4(2)
Grade 3 TOX
  Alanine aminotransferase increased, events (patients): 6(5)
  Anemia, events (patients): 1(1)
  Aspartate aminotransferase increased, events (patients): 1(1)
  Blurred vision, events (patients): 1(1)
  Capillary leak syndrome, events (patients): 1(1)
  Chest wall pain, events (patients): 1(1)
  Confusion, events (patients): 1(1)
  Dehydration, events (patients): 2(2)
  Depressed level of consciousness, events (patients): 1(1)
  Diarrhea, events (patients): 2(2)
  Dysphasia, events (patients): 1(1)
  Enterocolitis, events (patients): 1(1)
